Source: patent US8236346B2, “Method for reducing amyloid deposition, amyloid neurotoxicity, and microgliosis with (-)-nilvadipine enantiomer” (Alzheimer's Institute of America, Inc, priority 2007, dated 2012)
Each block holds one compound with its values, some of them ahead of it.

How the values were obtained:
[1] = test system: CD45+ microglia; experiment: Chronic administration of nilvadipine on microglial activation, CD45 immunostaining; assay type: in vivo, TgAPPsw mice
Procedure: Briefly, immunohistochemistry for CD45, a specific marker of microglia, was conducted on the cryostat brain sections. CD45-positive microglial cells were immunolocalized by incubation with a mouse monoclonal antibody against CD45 (Chemicon International) overnight at 4° C., followed by application of a biotinylated rabbit anti-mouse secondary antibody for 30 minutes. Detection of CD45 was completed with diaminobenzidine chromogen substrate, which produces a brown cell surface stain on CD45-positive microglial cells.

[2] = test system: N9 murine microglial cells; experiment: LPS-induced microglial activation, TNF-α production by ELISA; assay type: cell-based
Procedure: N9 murine microglial cells are well characterized scavenger murine microglial clones derived from embryonic mouse brain. The extent of microglial activation was determined by TNF-α production (pg/ml) measured by ELISA. […] Microglial cells in the presence of 1 μg/ml LPS produced about 820 pg/ml TNF-α, an […] from the control cells and nilvadipine-administered cells.

[3] = test system: Aβ deposition (amyloid burden); experiment: Chronic administration of nilvadipine on Aβ deposition (amyloid burden), 4G8 immunostaining; assay type: in vivo, TgAPPsw mice
Procedure: The 4G8 immunostaining technique was chosen for determining the Aβ burden because of its robust signal and optimal results for quantitative analysis of Aβ deposition. Briefly, paraffin sections were subjected to immunohistochemistry as described previously (Nakagawa, Y et al., Exp. Neurol., 163:244-252, 2000). Sections were deparaffinized in xylene, hydrated in a series of ethanol and deionized water, and subjected to an antigen retrieval step by immersing sections in 88% formic acid for 60 min before immunohistochemistry for Aβ. Sections were washed in water, and endogenous peroxidases were quenched using a freshly prepared mixture of methanol (150 ml) plus hydrogen peroxide (33%, 30 ml). The avidin-biotin complex method was used according to the instructions of the vendor (Vector Laboratories, Burlingame, Calif.). Amyloid burden was assessed by determining the percentage of the brain region that stained positive for Aβ. Negative controls included the application of the same immunohistochemistry protocol to sections, except preimmune serum was applied instead of primary antibody.

[4] = test system: human glioblastoma cells transfected with APPsw; experiment: APP processing, Aβ1-40 production by ELISA; assay type: cell-based
[5] = test system: human neuronal progenitor cells (HNPC); experiment: Aβ neurotoxicity, LDH release; assay type: cell-based; conditions: 100 nM nilvadipine with 30 μM AgAβ, three days
Procedure: Cyclic AMP (1 mM) (Sigma) was added to the culture medium and the HNPC cells were incubated at 37° C. for 48 hours or more under serum free conditions. This medium allowed differentiation of the progenitors into cells of neuronal lineage, as was confirmed by the staining of most of the cells with antibodies against the microtubule-associated protein, MAP-2. Neurotoxicity was assessed by measuring the amount of lactic dehydrogenase (LDH; an intracellular enzyme found in all cells) released from the cells.

[6] = test system: 7W WT APP751 Chinese hamster ovary cells; experiment: Aβ1-40 and Aβ1-42 production by ELISA; assay type: cell-based; conditions: 24 hours treatment
Procedure: Production of Aβ1-40 and Aβ1-42 in the culture medium was measured by using a commercially available human Aβ1-40 ELISA (Biosource, CA) and commercially available human Aβ1-42 ELISA (Biosource, CA), respectively.

[7] = target: L-type calcium channels (Rattus norvegicus, UniProt P22002); experiment: FPL64176 induced vasoconstriction in rat aortae; conditions: 100 nM, 2 min prior to 1 μM FPL64176
[8] = test system: Aβ deposits; conditions: Lim et al., J. Neurosci. 2000; cited from earlier work

L-type calcium channels, sequence (P22002 whole entry): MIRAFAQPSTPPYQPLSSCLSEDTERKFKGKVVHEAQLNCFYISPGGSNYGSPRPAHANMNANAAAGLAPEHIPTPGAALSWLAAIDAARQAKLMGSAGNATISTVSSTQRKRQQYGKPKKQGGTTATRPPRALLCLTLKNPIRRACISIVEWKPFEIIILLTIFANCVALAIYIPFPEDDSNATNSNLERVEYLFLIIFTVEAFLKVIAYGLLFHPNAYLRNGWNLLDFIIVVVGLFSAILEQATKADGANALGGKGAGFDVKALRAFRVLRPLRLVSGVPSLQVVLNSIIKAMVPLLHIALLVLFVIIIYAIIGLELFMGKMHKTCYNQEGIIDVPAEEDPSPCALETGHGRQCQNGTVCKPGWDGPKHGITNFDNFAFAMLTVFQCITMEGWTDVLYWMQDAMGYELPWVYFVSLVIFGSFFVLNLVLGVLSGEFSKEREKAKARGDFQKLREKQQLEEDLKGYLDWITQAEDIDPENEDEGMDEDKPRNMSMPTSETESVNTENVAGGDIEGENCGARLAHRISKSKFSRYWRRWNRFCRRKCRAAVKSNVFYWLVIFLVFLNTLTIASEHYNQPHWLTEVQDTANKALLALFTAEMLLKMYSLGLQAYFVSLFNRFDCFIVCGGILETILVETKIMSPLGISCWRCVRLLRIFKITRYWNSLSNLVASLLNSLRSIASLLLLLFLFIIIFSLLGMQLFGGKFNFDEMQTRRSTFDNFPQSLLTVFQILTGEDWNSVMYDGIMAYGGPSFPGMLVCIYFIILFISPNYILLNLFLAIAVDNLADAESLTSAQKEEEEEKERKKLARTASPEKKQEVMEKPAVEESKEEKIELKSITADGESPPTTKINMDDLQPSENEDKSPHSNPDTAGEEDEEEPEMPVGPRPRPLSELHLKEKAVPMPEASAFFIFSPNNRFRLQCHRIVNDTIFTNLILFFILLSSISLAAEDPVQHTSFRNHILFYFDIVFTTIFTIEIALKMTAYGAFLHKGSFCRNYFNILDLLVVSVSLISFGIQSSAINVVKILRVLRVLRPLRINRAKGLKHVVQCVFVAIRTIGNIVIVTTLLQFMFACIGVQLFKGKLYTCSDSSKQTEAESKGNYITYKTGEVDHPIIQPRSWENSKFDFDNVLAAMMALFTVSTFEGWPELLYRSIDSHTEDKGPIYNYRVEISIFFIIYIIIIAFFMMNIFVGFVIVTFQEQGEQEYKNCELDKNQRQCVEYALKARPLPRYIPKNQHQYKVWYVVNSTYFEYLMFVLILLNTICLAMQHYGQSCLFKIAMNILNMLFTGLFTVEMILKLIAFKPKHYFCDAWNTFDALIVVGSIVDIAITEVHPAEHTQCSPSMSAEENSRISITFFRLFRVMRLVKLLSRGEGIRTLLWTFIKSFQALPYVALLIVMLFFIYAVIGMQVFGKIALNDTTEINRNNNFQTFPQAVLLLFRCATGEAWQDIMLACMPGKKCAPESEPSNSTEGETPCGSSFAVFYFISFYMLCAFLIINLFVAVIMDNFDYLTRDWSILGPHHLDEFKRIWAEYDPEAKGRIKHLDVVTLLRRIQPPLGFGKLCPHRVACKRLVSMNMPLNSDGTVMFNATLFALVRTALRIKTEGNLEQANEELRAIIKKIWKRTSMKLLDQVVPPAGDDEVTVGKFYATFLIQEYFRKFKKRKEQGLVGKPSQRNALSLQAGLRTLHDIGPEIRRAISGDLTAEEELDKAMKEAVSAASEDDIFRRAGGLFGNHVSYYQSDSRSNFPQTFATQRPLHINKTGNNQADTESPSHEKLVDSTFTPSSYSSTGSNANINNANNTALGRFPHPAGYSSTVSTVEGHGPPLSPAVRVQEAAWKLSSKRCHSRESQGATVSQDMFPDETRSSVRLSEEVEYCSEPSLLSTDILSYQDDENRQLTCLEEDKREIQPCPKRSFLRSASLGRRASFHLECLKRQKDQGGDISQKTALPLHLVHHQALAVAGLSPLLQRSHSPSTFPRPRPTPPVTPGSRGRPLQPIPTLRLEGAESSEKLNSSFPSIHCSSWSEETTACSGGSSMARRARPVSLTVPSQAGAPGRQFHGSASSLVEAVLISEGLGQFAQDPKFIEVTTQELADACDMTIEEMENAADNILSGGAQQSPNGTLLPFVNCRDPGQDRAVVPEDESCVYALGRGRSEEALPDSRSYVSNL
L-type calcium channels, sequence (P54290 25-944 partner limits assumed): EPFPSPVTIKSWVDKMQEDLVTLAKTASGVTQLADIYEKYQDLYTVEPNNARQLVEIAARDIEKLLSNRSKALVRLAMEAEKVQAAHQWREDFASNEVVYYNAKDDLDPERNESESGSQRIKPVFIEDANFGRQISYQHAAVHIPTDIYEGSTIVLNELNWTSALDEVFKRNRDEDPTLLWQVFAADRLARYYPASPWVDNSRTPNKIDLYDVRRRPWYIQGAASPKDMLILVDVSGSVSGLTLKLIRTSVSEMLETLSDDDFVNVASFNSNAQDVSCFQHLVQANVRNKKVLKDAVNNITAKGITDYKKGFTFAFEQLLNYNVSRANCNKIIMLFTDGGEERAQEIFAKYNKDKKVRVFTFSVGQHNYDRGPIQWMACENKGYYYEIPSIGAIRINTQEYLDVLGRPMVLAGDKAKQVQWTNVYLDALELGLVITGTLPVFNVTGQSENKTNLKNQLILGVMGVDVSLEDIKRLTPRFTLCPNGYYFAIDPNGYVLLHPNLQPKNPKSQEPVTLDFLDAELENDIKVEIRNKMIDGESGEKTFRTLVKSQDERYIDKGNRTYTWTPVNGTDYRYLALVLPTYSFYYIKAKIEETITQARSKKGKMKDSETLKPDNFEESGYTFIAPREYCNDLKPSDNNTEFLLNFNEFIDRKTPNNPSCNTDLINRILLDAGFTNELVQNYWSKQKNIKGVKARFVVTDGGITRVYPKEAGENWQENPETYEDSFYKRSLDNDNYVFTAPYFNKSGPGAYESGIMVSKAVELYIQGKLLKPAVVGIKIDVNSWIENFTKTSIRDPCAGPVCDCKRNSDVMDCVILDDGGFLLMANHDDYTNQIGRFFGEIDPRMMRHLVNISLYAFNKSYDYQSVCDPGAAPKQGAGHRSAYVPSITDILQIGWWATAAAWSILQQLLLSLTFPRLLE
L-type calcium channels, sequence (P54290 945-1091 partner limits assumed): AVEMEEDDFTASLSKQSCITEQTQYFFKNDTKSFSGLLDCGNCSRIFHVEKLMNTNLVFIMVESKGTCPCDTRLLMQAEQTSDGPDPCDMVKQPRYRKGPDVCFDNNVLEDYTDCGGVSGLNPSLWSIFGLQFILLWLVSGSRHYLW

SMILES: COC(=O)C1=C(C#N)NC(C)=C(C(=O)OC(C)C)C1c1cccc([N+](=O)[O-])c1 (racemic) [nilvadipine, isopropyl-3-methyl-2-cyano-1,4-dihydro-6-methyl-4-(m-nitrophenyl)-3,5-pyridine-dicarboxylate]
reduction of microglial activation compared to controls ([1]; hippocampus): about 33% | reduction of microglial activation compared to controls ([1]; motor cortex): about 27% | reduction of microglial activation compared to controls ([1]; parietal cortex): about 43% | TNF-α production ([2]; 50 nM nilvadipine, no LPS): about 40 pg/ml | TNF-α production ([2]; 1 μg/ml LPS plus 50 nM nilvadipine, 24 hours): about 670 pg/ml | TNF-α production ([2]; 1 μg/ml LPS plus 500 nM nilvadipine, 24 hours): about 610 pg/ml | reduction of Aβ burden compared to controls ([3]; CA1 region of the hippocampus): about 52% | reduction of Aβ burden compared to controls ([3]; CA2-CA3 region of the hippocampus): about 50% | reduction of Aβ burden compared to controls ([3]; motor cortex): about 58% | reduction of Aβ burden compared to controls ([3]; parietal cortex): about 65% | reduction of Aβ burden compared to controls ([3]; pyriform cortex): about 58% | reduction of Aβ burden compared to controls ([3]; visual cortex): about 62% | reduction of Aβ1-40 production ([4]; 50 nM, 24 hours): about 9% | reduction of Aβ1-40 production ([4]; 50 nM, 48 hours): about 18% | reduction of Aβ1-40 production ([4]; 250 nM, 24 hours): about 15% | reduction of Aβ1-40 production ([4]; 250 nM, 48 hours): about 5% | decrease of LDH release [5]: about 44%

effect on FPL64176 induced vasoconstriction [7]: completely antagonizes
SMILES: COC(=O)C1=C(C#N)NC(C)=C(C(=O)OC(C)C)[C@H]1c1cccc([N+](=O)[O-])c1 [(+)-nilvadipine]
effect on Aβ1-40 production ([6]; dose response): dose dependently inhibit | effect on Aβ1-42 production ([6]; low dose): slightly stimulate

SMILES: CC(C)Cc1ccc(C(C)C(=O)O)cc1 (stereo not drawn) [ibuprofen]
effect on Aβ deposits, astrocytosis and dystrophic neuritis [8]: reduction in Aβ deposits, astrocytosis, and dystrophic neuritis
